Data from ChEMBL document CHEMBL1140361, “Tubulin-polymerization inhibitors derived from thalidomide” (2005).

Columns and labels:
Type in all cases: functional
[1] = test system: HL-60; experiment: Cell growth-inhibitory activity toward human leukemia cell line HL60 at 3 uM concentration
[2] = species: Sus scrofa; experiment: Inhibitory activity against tubulin polymerization at 20 uM
[3] = test system: HL-60; experiment: Cell growth-inhibitory activity toward human leukemia cell line HL60 at 10 uM concentration
[4] = test system: HL-60; experiment: Cell growth-inhibitory activity toward human leukemia cell line HL60 at 6 uM concentration

Row | Structure (SMILES) | inhibition at 3 µM [1] | Inhibition [2] | inhibition at 10 µM [3] | inhibition at 6 µM [4]
1 | CC(C)c1cccc(C(C)C)c1N1C(=O)c2cccc([N+](=O)[O-])c2C1=O | ~0% | <10% | ~0% | ~0%
2 | CC(C)c1cccc(C(C)C)c1N1C(=O)c2cccc(O)c2C1=O | ~0% | 7% | 8% | ~0%
3 | Cc1cccc(C)c1N1C(=O)c2cccc(O)c2C1=O | ~0% |  | ~0% | ~0%
4 | Cc1cccc(C)c1N1C(=O)c2ccc(O)cc2C1=O | ~0% | <10% | 6% | ~0%
5 | O=C1c2ccc(O)cc2C(=O)N1c1ccccc1 | ~0% | <10% | 34% | < 5%
6 | COc1cc2c(c(OC)c1OC)-c1ccc(OC)c(=O)cc1[C@@H](NC(C)=O)CC2 [COLCHICINE] |  | 78% |  | 
7 | O=C1c2ccccc2C(=O)N1c1ccccc1 [N-PHENYL-PHTHALIMIDE] | ~0% |  | ~0% | ~0%
8 | Cc1cccc(C)c1N1C(=O)c2ccccc2C1=O | ~0% |  | ~0% | ~0%
9 | CC(C)c1cccc(C(C)C)c1N1C(=O)c2cccc(N)c2C1=O | ~0% | <10% | ~0% | ~0%
10 | CC(C)c1cccc(C(C)C)c1N1C(=O)c2ccc(N)cc2C1=O | ~0% | 81% | 23% | < 5%
11 | O=C1c2cccc(O)c2C(=O)N1c1ccccc1 | ~0% |  | ~0% | ~0%
12 | O=C1CCC(N2C(=O)c3ccccc3C2=O)C(=O)N1 (stereo not given) [THALIDOMIDE] |  | <10% |  | 
13 | CC(C)c1cccc(C(C)C)c1N1C(=O)c2ccc(O)cc2C1=O | 6% | <83% | ~100% | 72%
14 | CC(C)c1cccc(C(C)C)c1N1C(=O)c2ccc([N+](=O)[O-])cc2C1=O | ~0% | <10% | 16% | < 5%
15 | CC(C)c1cccc(C(C)C)c1N1C(=O)c2ccccc2C1=O | ~0% | 7% | < 5% | ~0%
